Earlier results in patent US8557989B2, “Electrochemical affinity biosensor system and methods” (priority 2003, dated 2013).

Target: glucose oxidase (Aspergillus niger, UniProt P13006)
Conditions: with glucose oxidase

glucose oxidase, sequence (P13006 17-605): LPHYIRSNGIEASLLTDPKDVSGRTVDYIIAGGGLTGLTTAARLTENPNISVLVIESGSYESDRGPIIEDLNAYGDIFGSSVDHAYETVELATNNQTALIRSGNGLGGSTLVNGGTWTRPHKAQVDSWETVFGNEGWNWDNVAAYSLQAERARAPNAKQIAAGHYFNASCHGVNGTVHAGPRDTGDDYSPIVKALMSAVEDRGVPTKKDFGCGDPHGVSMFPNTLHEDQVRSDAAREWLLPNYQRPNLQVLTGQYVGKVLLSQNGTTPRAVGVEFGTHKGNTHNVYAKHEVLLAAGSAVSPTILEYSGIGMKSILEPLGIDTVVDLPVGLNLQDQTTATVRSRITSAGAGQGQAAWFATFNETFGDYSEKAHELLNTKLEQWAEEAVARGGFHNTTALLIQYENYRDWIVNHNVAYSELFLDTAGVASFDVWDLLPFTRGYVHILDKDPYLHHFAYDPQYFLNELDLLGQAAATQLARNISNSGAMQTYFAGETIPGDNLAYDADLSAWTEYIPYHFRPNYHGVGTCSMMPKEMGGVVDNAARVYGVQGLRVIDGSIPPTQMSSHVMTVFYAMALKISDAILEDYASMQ

bis(2,2′-bipyridyl) imidazole chloro osmium (III) dichloride [osmium free mediator]
mediation kinetics, times faster than ferricyanide: about 500 times
